Experimental data taken from PMC3629081, “Tetrahydropyrazolo[1,5-a]Pyrimidine-3-Carboxamide and N-Benzyl-6′,7′-Dihydrospiro[Piperidine-4,4′-Thieno[3,2-c]Pyran] Analogues with Bactericidal Efficacy against Mycobacterium tuberculosis Targeting MmpL3” (PLoS ONE, 2013).
Values joined by “and” are separate entries in the source; they are usually repeats but may differ in a detail not shown here. Equal values may be shown once.

Experiments:
M. tuberculosis = type: cell-based, Mycobacterium tuberculosis; conditions: 10x MIC
[1] = system: M. tuberculosis H37Rv mutants with MmpL3 mutations; type: cell-based, Mycobacterium tuberculosis

SMILES | frequency of spontaneous resistant mutant generation (M. tuberculosis) | Ratio MICmut/MICwt [1] | susceptibility of all isolated mutants to classic antitubercular drugs [1]
CCc1ccc([C@H]2C[C@@H](C(F)(F)F)n3ncc(C(=O)NCc4ccc(OC)cc4)c3N2)cc1 [Compound 1, (5R,7S)-5-(4-ethylphenyl)-N-(4-methoxybenzyl)-7-(trifluoromethyl)-4,5,6,7-tetrahydropyrazolo[1,5-a]pyrimidine-3-carboxamide] | 6.4×10^−8 mutant/cfus |  | 
c1cc2c(s1)CCOC21CCN(Cc2ccc3c(c2)OCCO3)CC1 [Compound 2] | 3.6×10^−8 mutant/cfus |  | 
CC[C@@H](CO)NCCN[C@@H](CC)CO [Ethambutol] |  | 0.5 and 1.0 and 0.8 | susceptible
CC(=O)NC[C@H]1CN(c2ccc(N3CCOCC3)c(F)c2)C(=O)O1 [Linezolid] |  | 0.5 and 1.0 | susceptible
COc1c(N2C[C@@H]3CCCN[C@@H]3C2)c(F)cc2c(=O)c(C(=O)O)cn(C3CC3)c12 [Moxifloxacin] |  | 1.0 and 0.5 | susceptible
